Values after ≈ are worked out from the molar mass of the structure shown. Values joined by “and” are separate entries in the source; they are usually repeats but may differ in a detail not shown here. Equal values may be shown once.
How the values were obtained:
[1] = system: S. aureus (MDR00231); experiment: Agar well-diffusion antimicrobial sensitivity assay; type: cell-based, Staphylococcus aureus; details: Staphylococcus aureus, read-out: Inhibition Zone (IZ)
[2] = system: S. epidermidis (MDR00223); experiment: as above; type: cell-based, Staphylococcus epidermidis; details: Staphylococcus epidermidis, read-out: Inhibition Zone (IZ)
[3] = system: E. coli (MDR00501); experiment: as above; type: cell-based; details: Escherichia coli, read-out: Inhibition Zone (IZ)
[4] = system: C. albicans100 (MDR00100); experiment: as above; type: cell-based, Candida albicans; details: Candida albicans, read-out: Inhibition Zone (IZ)
[5] = system: C. albicans200 (MDR00200); experiment: as above; type: cell-based, Candida albicans; details: Candida albicans, read-out: Inhibition Zone (IZ)
[6] = system: S. aureus (MDR00231); experiment: MIC and MBC by broth microdilution; type: cell-based, Staphylococcus aureus
[7] = system: S. epidermidis (MDR00223); experiment: MIC and MBC by broth microdilution; type: cell-based, Staphylococcus epidermidis
[8] = system: B. subtilis (MDR00423); experiment: MIC and MBC by broth microdilution; type: cell-based
[9] = system: E. coli (MDR00501); experiment: MIC and MBC by broth microdilution; type: cell-based
[10] = system: A. baumannii (MDR00521); experiment: MIC and MBC by broth microdilution; type: cell-based; details: ratio in parentheses
[11] = system: K. pneumoniae (MDR00244); experiment: MIC and MBC by broth microdilution; type: cell-based; details: ratio in parentheses
[12] = system: C. albicans100 (MDR00100); experiment: MIC and MFC by broth microdilution; type: cell-based, Candida albicans
[13] = system: C. albicans200 (MDR00200); experiment: MIC and MFC by broth microdilution; type: cell-based, Candida albicans
[14] = system: S. aureus biofilm; experiment: Staphylococcus biofilm mass reduction; type: cell-based; details: at their MIC
[15] = system: S. epidermidis biofilm; experiment: Staphylococcus biofilm mass reduction; type: cell-based; details: at their MIC
[16] = system: S. aureus; experiment: Single-step resistance selection; type: cell-based, Staphylococcus aureus; details: 4 × MIC, 48 h
[17] = system: S. epidermidis; experiment: Single-step resistance selection; type: cell-based, Staphylococcus epidermidis; details: 4 × MIC, 48 h
[18] = system: B. subtilis; experiment: Single-step resistance selection; type: cell-based; details: 4 × MIC, 48 h
[19] = system: E. coli; experiment: Single-step resistance selection; type: cell-based; details: 4 × MIC, 48 h
[20] = system: A. baumannii; experiment: Single-step resistance selection; type: cell-based; details: 4 × MIC, 48 h
[21] = system: K. pneumoniae; experiment: Single-step resistance selection; type: cell-based; details: 4 × MIC, 48 h
[22] = system: C. albicans100; experiment: Single-step resistance selection; type: cell-based, Candida albicans; details: 4 × MIC, 48 h
[23] = system: C. albicans200; experiment: Single-step resistance selection; type: cell-based, Candida albicans; details: 4 × MIC, 48 h
[24] = system: S. aureus; experiment: Checkerboard combination assay with Ciprofloxacin; type: cell-based, Staphylococcus aureus
[25] = system: S. epidermidis; experiment: Checkerboard combination assay with Ciprofloxacin; type: cell-based, Staphylococcus epidermidis
[26] = system: B. subtilis; experiment: Checkerboard combination assay with Ciprofloxacin; type: cell-based
[27] = system: E. coli; experiment: Checkerboard combination assay with Ciprofloxacin; type: cell-based
[28] = system: A. baumannii; experiment: Checkerboard combination assay with Ciprofloxacin; type: cell-based
[29] = system: K. pneumoniae; experiment: Checkerboard combination assay with Ciprofloxacin; type: cell-based
[30] = system: C. albicans100; experiment: Checkerboard combination assay with Ketoconazole; type: cell-based, Candida albicans
[31] = system: C. albicans200; experiment: Checkerboard combination assay with Ketoconazole; type: cell-based, Candida albicans
[32] = system: RBCs; experiment: Hemolytic assay; type: cell-based; details: human RBCs; compounds 1.0 mg/mL; Triton X-100 0.1% v/v; 37 °C, 35 min
[33] = target: E. coli DNA gyrase (Escherichia coli, UniProt P0AES4+P0AES6); experiment: DNA gyrase inhibition; type: biochemical
Chain of E. coli DNA gyrase (P0AES4 whole entry, one chain of several): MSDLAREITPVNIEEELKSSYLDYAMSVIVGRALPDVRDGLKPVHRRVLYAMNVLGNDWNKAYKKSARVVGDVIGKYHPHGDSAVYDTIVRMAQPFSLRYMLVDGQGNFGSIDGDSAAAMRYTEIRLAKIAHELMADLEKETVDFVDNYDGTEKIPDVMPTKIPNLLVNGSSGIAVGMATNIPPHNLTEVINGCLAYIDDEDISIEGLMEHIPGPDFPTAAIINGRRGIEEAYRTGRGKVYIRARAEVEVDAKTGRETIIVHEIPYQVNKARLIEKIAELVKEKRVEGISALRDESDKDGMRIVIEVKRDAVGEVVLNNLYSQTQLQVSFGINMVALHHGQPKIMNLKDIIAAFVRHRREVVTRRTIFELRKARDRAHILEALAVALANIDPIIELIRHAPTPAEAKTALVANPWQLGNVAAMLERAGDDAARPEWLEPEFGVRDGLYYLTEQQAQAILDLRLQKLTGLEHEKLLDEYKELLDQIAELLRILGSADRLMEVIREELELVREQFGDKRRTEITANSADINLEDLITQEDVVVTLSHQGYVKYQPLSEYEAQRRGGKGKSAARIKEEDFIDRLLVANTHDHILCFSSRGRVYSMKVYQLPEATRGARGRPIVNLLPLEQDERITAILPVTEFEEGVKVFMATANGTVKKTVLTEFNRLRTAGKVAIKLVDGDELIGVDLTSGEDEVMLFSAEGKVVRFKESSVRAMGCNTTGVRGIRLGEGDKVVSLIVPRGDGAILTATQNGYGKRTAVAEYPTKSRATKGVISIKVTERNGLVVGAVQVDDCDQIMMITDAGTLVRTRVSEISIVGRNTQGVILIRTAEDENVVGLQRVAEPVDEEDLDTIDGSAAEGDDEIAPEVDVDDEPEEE

[34] = target: T1, dihydrofolate reductase (DHFR) (Homo sapiens, UniProt P00374); experiment: DHFR inhibition; type: biochemical
T1 sequence (P00374 1-187): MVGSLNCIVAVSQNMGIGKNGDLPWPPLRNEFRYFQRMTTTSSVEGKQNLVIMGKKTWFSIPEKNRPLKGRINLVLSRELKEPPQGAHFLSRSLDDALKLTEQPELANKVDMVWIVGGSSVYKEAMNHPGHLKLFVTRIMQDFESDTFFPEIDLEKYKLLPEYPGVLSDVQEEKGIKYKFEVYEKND

[35] = In vitro cytotoxicity on normal cell line; type: cell-based, mouse; details: mouse, BNL normal liver cells
[36] = system: BNL: mouse normal liver cells; experiment: In vitro cytotoxicity on normal cell line; type: cell-based
[37] = In vitro cytotoxicity on normal cell line; type: cell-based, green monkey; details: green monkey, Vero kidney cells
[38] = system: Vero: green monkey kidney; experiment: In vitro cytotoxicity on normal cell line; type: cell-based
[39] = In vitro cytotoxicity on normal cell line; type: cell-based, rat; details: rat, H9C2 heart/myocardium cells
[40] = system: H9C2: rat heart/myocardium; experiment: In vitro cytotoxicity on normal cell line; type: cell-based
[41] = system: S. aureus; experiment: Time-kill kinetic assay; type: cell-based, Staphylococcus aureus
[42] = system: S. epidermidis; experiment: Time-kill kinetic assay; type: cell-based, Staphylococcus epidermidis; details: 2 × MIC
[43] = system: B. subtilis; experiment: Time-kill kinetic assay; type: cell-based; details: 2 × MIC
[44] = system: E. coli; experiment: Time-kill kinetic assay; type: cell-based
[45] = system: A. baumannii; experiment: Time-kill kinetic assay; type: cell-based; details: 2 × MIC
[46] = system: K. pneumoniae; experiment: Time-kill kinetic assay; type: cell-based; details: 2 × MIC
[47] = system: clinical pathogenic isolates; experiment: Single-step resistance selection, whole panel; type: cell-based; details: 4 × MIC
[48] = system: all the pathogenic isolates tested; experiment: Time-kill kinetic assay, whole panel; type: cell-based

CCOC(=O)c1c(N)csc1-c1cn(-c2ccccc2)nc1-c1ccc(C)cc1 [Compound 7b, Ethyl 4-Amino-2-(1-phenyl-3-(p-tolyl)-1H-pyrazol-4-yl)thiophene-3-carboxylate]
zone of inhibition at 100000 µg/mL [1]: 33 ± 0.32 mm
zone of inhibition at 100000 µg/mL [2]: 31 ± 0.16 mm
zone of inhibition at 100000 µg/mL [3]: 30 ± 0.5 mm
zone of inhibition at 100000 µg/mL [4]: 31 ± 0.11 mm
zone of inhibition at 100000 µg/mL [5]: 32 ± 0.32 mm
MBC/MIC ([6]; S. aureus, ratio in parentheses): 0.5
MIC ([6]; Staphylococcus aureus, read-out: MIC (mean ± SEM), S. aureus, broth microdilution): 0.22 ± 0.3 µg/mL (≈ 0.545 µM)
MBC/MIC ([7]; S. epidermidis, ratio in parentheses): 0.5
MIC ([7]; Staphylococcus epidermidis, read-out: MIC (mean ± SEM), S. epidermidis, broth microdilution): 0.24 ± 0.2 µg/mL (≈ 0.595 µM)
MBC/MIC ([8]; B. subtilis, ratio in parentheses): 1
MIC ([8]; Bacillus subtilis, read-out: MIC (mean ± SEM), B. subtilis, broth microdilution): 0.23 ± 0.6 µg/mL (≈ 0.57 µM)
MBC/MIC ([9]; E. coli, ratio in parentheses): 0.5
MIC ([9]; Escherichia coli, read-out: MIC (mean ± SEM), E. coli, broth microdilution): 0.23 ± 0.1 µg/mL (≈ 0.57 µM)
MBC/MIC [10]: 1
MBC/MIC [11]: 1
MFC/MIC ([12]; C. albicans100, ratio in parentheses): 1
MIC ([12]; Candida albicans, read-out: MIC (mean ± SEM), C. albicans100, broth microdilution): 0.25 ± 0.2 µg/mL (≈ 0.62 µM)
MFC/MIC ([13]; C. albicans200, ratio in parentheses): 0.5
MIC ([13]; Candida albicans, read-out: MIC (mean ± SEM), C. albicans200, broth microdilution): 0.23 ± 0.3 µg/mL (≈ 0.57 µM)
reduction of biofilm formation [14]: 67%
reduction of biofilm formation [15]: 58%
Single-step resistance frequency (mutation frequency) [16]: 1.34 × 10^–6
Single-step resistance frequency (mutation frequency) [17]: 1.62 × 10^–6
Single-step resistance frequency (mutation frequency) [18]: 1.30 × 10^–7
Single-step resistance frequency (mutation frequency) [19]: 1.90 × 10^–6
Single-step resistance frequency (mutation frequency) [20]: 2.11 × 10^–6
Single-step resistance frequency (mutation frequency) [21]: 1.67 × 10^–7
Single-step resistance frequency (mutation frequency) [22]: 2.51 × 10^–6
Single-step resistance frequency (mutation frequency) [23]: 3.10 × 10^–6
combination effect [24]: S (S: synergism)
fractional inhibitory concentration index (FICI) [24]: 0.25
combination effect [25]: S (S: synergism)
fractional inhibitory concentration index (FICI) [25]: 0.25
combination effect [26]: S (S: synergism)
fractional inhibitory concentration index (FICI) [26]: 0.5
combination effect [27]: S (S: synergism)
fractional inhibitory concentration index (FICI) [27]: 0.5
combination effect [28]: S (S: synergism)
fractional inhibitory concentration index (FICI) [28]: 0.25
combination effect [29]: S (S: synergism)
fractional inhibitory concentration index (FICI) [29]: 0.5
combination effect [30]: S (S: synergism)
fractional inhibitory concentration index (FICI) [30]: 0.5
combination effect [31]: S (S: synergism)
%lysis of RBCs [32]: 3.23% and 3.23 ± 0.58%
IC50 [33]: 12.3 ± 0.34 µM
IC50 [34]: 0.52 ± 0.2 µM
IC50 at 72 h [35]: 103 ± 1.51 µM
Selectivity index against DHFR ([36]; IC50 of BNL / IC50 of DHFR): 198.65
Selectivity index against DNA gyrase ([36]; IC50 of BNL / IC50 of DNA gyrase): 8.41
IC50 at 72 h [37]: 78.8 ± 1.1 µM
Selectivity index against DHFR ([38]; IC50 of Vero / IC50 of DHFR): 151.61
Selectivity index against DNA gyrase ([38]; IC50 of Vero / IC50 of DNA gyrase): 6.42
IC50 at 72 h [39]: 102 ± 1.39 µM
Selectivity index against DHFR ([40]; IC50 of H9C2 / IC50 of DHFR): 195.44
Selectivity index against DNA gyrase ([40]; IC50 of H9C2 / IC50 of DNA gyrase): 8.28
time of maximum reduction ([41]; 1/2 × MIC): 24 h
time after which cells were rapidly reduced ([41]; 2 × MIC): 8 h
time after which cells were rapidly reduced [42]: 12 h
time after which cells were rapidly reduced [43]: 12 h
time of maximum reduction ([44]; 1/2 × MIC): 24 h
time after which cells were rapidly reduced ([44]; 2 × MIC): 4 h
time after which cells were rapidly reduced [45]: 8 h
time after which cells were rapidly reduced [46]: 12 h
mutation frequency, range over panel [47]: 1.34 × 10^–6 to 1.67 × 10^–7
reduction in the viable cell count relative to the initial inoculum [48]: ≥ 3 log10
